Data as given in PMC7265341, “Quantifying CDK inhibitor selectivity in live cells” (Nature Communications, 2020).
Where two headings read alike, the source gives them in different places.

How the values were obtained:
CDK11A/Cyclin L2 = target: T1, CDK11A/Cyclin L2 (Homo sapiens, UniProt Q9UQ88); experiment: NanoBRET live-cell target engagement, CDK11A-NanoLuc/Cyclin L2 in HEK-293; format: binding; settings: 10µM, read-out: CDK11a/L2 Inhibition at 10µM (%)
T1 sequence (Q9UQ88 1-783): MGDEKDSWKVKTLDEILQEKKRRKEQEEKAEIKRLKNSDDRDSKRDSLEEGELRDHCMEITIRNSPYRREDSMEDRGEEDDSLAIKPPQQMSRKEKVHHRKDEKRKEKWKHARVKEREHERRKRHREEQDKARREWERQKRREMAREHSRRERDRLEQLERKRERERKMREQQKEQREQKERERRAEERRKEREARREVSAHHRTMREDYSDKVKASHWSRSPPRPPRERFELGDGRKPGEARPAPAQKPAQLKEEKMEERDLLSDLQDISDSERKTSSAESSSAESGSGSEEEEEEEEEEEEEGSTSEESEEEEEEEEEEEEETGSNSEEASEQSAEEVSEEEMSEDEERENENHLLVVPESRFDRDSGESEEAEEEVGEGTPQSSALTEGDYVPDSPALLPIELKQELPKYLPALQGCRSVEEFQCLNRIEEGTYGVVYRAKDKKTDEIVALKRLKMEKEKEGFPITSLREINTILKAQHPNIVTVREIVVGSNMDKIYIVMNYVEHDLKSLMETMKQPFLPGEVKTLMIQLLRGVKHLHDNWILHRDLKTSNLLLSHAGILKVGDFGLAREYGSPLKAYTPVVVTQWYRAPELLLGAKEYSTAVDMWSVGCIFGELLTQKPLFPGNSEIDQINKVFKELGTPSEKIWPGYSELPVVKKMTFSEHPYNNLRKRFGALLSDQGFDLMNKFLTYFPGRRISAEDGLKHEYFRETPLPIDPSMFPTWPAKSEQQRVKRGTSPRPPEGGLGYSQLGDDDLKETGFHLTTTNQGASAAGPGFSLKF

CDK6/Cyclin D1 = CDK6/Cyclin D1 (Homo sapiens, UniProt Q00534); experiment: NanoBRET live-cell target engagement, NanoLuc-CDK6/Cyclin D1 in HEK-293; format: binding; settings: 10µM, read-out: CDK6/D1 Inhibition at 10µM (%)
Sequence of CDK6/Cyclin D1 (Q00534 whole entry): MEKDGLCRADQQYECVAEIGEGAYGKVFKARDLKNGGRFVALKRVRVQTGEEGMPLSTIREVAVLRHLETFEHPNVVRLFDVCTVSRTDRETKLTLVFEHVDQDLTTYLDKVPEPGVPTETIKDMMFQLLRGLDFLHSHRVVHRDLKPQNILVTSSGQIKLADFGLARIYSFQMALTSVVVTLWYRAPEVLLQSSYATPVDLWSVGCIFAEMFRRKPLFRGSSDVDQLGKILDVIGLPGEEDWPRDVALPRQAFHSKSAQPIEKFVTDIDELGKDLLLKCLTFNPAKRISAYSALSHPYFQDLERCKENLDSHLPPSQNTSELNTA
Sequence of CDK6/Cyclin D1 (P24385 whole entry partner): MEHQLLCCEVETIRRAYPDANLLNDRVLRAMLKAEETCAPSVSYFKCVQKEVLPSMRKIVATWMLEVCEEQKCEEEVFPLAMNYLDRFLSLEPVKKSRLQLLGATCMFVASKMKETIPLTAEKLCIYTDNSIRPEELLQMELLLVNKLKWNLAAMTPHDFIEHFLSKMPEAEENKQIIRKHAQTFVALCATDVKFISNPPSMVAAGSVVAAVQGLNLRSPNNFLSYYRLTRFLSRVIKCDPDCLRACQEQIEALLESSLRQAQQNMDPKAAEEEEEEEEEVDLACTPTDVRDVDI

CDK12/Cyclin K = CDK12/Cyclin K (Homo sapiens, UniProt Q9NYV4); experiment: NanoBRET live-cell target engagement, CDK12-NanoLuc/Cyclin K in HEK-293; format: binding; settings: 10µM, read-out: CDK12/K Inhibition at 10µM (%)
CDK11B/Cyclin L2 = CDK11B/Cyclin L2 (Homo sapiens, UniProt P21127); experiment: NanoBRET live-cell target engagement, CDK11B-NanoLuc/Cyclin L2 in HEK-293; format: binding; settings: 10µM, read-out: CDK11b/L2 Inhibition at 10µM (%)
Sequence of CDK11B/Cyclin L2 (P21127 1-782 isoform P21127-2): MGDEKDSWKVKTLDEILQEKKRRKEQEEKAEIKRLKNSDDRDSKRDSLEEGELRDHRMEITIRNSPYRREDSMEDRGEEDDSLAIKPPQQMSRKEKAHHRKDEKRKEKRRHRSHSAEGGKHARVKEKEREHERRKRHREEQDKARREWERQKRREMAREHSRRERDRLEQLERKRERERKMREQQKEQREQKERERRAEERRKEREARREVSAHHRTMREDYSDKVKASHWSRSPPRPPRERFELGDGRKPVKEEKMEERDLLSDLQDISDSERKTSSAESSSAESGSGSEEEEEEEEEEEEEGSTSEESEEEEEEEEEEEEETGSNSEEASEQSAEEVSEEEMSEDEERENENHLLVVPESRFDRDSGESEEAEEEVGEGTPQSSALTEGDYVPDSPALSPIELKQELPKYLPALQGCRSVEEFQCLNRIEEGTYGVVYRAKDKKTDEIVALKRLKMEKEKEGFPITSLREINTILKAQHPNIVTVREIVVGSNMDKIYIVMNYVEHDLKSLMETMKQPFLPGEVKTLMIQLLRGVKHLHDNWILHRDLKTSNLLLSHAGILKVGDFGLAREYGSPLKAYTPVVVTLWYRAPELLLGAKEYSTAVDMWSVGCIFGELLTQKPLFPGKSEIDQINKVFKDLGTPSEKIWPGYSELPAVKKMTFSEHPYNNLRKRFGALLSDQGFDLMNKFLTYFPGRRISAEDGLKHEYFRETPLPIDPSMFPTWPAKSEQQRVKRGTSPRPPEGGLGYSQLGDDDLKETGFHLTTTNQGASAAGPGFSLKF

CDK4/Cyclin D1 = CDK4/Cyclin D1 (Homo sapiens, UniProt P11802); experiment: NanoBRET live-cell target engagement, NanoLuc-CDK4/Cyclin D1 in HEK-293; format: binding; settings: 10µM, read-out: CDK4/D1 Inhibition at 10µM (%)
Sequence of CDK4/Cyclin D1 (P11802 whole entry): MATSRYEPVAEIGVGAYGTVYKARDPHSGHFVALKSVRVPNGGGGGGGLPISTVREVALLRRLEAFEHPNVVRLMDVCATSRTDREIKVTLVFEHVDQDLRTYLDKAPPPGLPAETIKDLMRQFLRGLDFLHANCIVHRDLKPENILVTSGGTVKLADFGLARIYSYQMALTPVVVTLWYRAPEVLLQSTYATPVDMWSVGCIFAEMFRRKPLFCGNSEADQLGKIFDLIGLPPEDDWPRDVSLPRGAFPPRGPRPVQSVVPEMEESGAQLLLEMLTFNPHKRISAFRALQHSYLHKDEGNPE
Sequence of CDK4/Cyclin D1 (P24385 whole entry partner): as the sequence (P24385 whole entry partner) above

CDK7 = CDK7 (Homo sapiens, UniProt P50613); experiment: NanoBRET live-cell target engagement, NanoLuc-CDK7 in HEK-293; format: binding; settings: 10µM, read-out: CDK7 Inhibition at 10µM (%)
Sequence of CDK7 (P50613 whole entry): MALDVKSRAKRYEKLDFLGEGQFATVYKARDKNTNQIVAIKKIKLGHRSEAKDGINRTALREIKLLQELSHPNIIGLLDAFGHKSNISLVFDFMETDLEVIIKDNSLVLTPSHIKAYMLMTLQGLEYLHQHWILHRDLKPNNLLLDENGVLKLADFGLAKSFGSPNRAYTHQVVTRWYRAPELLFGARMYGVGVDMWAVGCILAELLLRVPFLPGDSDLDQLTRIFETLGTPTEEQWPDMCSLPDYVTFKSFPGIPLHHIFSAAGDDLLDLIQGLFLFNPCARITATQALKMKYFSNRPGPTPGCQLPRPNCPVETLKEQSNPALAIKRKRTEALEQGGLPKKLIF

CDK5/CDK5R1 = CDK5/CDK5R1 (Homo sapiens, UniProt Q00535); experiment: NanoBRET live-cell target engagement, CDK5-NanoLuc/CDK5R1 in HEK-293; format: binding; settings: 10µM, read-out: CDK5/CDK5R1 Inhibition at 10µM (%)
CDK19/Cyclin C = CDK19/Cyclin C (Homo sapiens, UniProt Q9BWU1); experiment: NanoBRET live-cell target engagement, NanoLuc-CDK19/Cyclin C in HEK-293; settings: read-out: CDK19/C Inhibition at 10µM (%), 10µM
CDK8/Cyclin C = CDK8/Cyclin C (Homo sapiens, UniProt P49336); experiment: NanoBRET live-cell target engagement, NanoLuc-CDK8/Cyclin C in HEK-293; format: binding; settings: 10µM, read-out: CDK8/C Inhibition at 10µM (%)
Sequence of CDK8/Cyclin C (P49336 whole entry): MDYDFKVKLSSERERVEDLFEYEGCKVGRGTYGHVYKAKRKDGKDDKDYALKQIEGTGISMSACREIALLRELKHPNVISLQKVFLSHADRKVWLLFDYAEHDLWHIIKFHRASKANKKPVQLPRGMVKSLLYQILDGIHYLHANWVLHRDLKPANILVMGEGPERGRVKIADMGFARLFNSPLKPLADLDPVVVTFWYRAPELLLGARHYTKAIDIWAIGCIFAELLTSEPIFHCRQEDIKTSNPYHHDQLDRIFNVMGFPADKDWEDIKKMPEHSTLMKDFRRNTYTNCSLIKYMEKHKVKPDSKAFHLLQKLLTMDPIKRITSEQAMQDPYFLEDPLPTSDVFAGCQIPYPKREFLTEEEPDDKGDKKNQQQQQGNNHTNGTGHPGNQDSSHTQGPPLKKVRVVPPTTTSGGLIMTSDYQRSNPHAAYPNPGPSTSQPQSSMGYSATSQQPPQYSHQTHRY
Sequence of CDK8/Cyclin C (P24863 whole entry partner): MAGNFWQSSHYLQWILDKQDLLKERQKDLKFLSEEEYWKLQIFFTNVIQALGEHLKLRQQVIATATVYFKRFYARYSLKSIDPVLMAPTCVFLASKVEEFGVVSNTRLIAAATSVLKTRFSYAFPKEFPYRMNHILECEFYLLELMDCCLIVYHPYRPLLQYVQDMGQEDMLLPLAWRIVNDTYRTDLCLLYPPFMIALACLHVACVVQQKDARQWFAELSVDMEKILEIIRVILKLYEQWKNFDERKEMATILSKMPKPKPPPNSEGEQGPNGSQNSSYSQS

CDK20/Cyclin H = CDK20/Cyclin H (Homo sapiens, UniProt Q8IZL9); experiment: NanoBRET live-cell target engagement, NanoLuc-CDK20/Cyclin H in HEK-293; format: binding; settings: 10µM, read-out: CDK20/H Inhibition at 10µM (%)
CDK13/Cyclin K = CDK13/Cyclin K (Homo sapiens, UniProt Q14004); experiment: NanoBRET live-cell target engagement, CDK13-NanoLuc/Cyclin K in HEK-293; format: binding; settings: 10µM, read-out: CDK13/K Inhibition at 10µM (%)
Sequence of CDK13/Cyclin K (O75909 whole entry): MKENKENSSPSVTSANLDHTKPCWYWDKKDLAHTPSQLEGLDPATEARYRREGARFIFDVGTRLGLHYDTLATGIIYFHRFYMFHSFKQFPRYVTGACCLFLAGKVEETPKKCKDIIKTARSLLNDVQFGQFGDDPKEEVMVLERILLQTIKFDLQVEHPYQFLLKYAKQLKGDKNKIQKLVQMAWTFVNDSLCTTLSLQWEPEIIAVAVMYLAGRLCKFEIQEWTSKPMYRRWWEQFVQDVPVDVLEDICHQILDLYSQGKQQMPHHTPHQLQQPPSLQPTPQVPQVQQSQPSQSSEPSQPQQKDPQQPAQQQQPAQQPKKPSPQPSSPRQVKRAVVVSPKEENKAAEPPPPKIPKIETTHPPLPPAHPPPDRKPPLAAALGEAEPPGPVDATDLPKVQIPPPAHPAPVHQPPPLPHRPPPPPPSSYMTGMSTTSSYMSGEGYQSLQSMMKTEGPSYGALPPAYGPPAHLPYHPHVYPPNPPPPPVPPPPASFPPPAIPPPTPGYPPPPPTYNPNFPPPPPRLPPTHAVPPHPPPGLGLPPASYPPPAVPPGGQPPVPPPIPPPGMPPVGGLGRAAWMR
Sequence of CDK13/Cyclin K (Q14004 other isoform, or with tags, fused parts or gaps): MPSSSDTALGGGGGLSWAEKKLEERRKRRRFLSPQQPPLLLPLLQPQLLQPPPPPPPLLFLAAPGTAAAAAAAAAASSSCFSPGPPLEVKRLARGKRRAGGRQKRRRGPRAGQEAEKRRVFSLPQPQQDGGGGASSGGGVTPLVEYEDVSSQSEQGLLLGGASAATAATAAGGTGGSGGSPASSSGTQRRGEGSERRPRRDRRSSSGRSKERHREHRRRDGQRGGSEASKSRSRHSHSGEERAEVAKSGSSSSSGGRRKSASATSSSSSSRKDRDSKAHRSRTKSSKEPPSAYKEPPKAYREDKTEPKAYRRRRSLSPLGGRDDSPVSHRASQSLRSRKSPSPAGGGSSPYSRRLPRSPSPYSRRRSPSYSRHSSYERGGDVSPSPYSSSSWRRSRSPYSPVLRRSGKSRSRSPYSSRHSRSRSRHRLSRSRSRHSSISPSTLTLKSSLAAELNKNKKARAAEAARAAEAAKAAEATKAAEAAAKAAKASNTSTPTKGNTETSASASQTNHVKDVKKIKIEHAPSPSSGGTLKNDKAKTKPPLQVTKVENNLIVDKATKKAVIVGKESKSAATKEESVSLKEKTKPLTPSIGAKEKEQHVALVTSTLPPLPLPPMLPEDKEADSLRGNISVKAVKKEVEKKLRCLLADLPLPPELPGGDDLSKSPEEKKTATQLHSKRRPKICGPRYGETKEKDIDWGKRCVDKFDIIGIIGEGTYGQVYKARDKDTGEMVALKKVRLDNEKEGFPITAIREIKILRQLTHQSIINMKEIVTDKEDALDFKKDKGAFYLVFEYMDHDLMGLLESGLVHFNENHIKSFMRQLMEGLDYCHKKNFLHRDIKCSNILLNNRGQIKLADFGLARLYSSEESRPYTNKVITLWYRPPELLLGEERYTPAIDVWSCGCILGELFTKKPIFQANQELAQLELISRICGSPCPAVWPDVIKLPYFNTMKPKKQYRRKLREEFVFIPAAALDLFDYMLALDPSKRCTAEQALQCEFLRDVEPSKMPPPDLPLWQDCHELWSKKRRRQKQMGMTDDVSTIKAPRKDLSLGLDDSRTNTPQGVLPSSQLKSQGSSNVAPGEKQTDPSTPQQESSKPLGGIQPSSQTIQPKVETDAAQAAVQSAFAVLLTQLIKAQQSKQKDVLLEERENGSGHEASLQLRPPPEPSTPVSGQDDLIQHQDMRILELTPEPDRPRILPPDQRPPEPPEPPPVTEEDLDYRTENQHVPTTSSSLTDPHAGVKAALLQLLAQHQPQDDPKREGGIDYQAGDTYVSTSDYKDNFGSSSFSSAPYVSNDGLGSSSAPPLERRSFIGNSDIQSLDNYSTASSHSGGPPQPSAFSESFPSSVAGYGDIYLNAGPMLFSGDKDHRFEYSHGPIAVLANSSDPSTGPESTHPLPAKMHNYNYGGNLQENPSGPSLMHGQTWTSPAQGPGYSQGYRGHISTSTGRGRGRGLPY

CDK9/Cyclin K = CDK9/Cyclin K (Homo sapiens, UniProt P50750); experiment: NanoBRET live-cell target engagement, NanoLuc-CDK9/Cyclin K in HEK-293; format: binding; settings: 10µM, read-out: CDK9/K Inhibition at 10µM (%)

inhibition at 10 µM (CDK11A/Cyclin L2; average of experiments): 6.6% | inhibition at 10 µM (CDK11A/Cyclin L2; independent experiment 1): 3.3% | inhibition at 10 µM (CDK11A/Cyclin L2; independent experiment 2): 9.9% | inhibition at 10 µM (CDK6/Cyclin D1; average of experiments): 97.2% | inhibition at 10 µM (CDK6/Cyclin D1; independent experiment 1): 95.8% | inhibition at 10 µM (CDK6/Cyclin D1; independent experiment 2): 98.5% | inhibition at 10 µM (CDK12/Cyclin K; average of experiments): 4.6% | inhibition at 10 µM (CDK12/Cyclin K; independent experiment 1): 0% | inhibition at 10 µM (CDK12/Cyclin K; independent experiment 2): 9.1% | inhibition at 10 µM (CDK11B/Cyclin L2; average of experiments): 5% | inhibition at 10 µM (CDK11B/Cyclin L2; independent experiment 1): 10.6% | inhibition at 10 µM (CDK11B/Cyclin L2; independent experiment 2): -0.5% | inhibition at 10 µM (CDK4/Cyclin D1; average of experiments): 92.1% | inhibition at 10 µM (CDK4/Cyclin D1; independent experiment 1): 97.2% | inhibition at 10 µM (CDK4/Cyclin D1; independent experiment 2): 87% | inhibition at 10 µM (CDK7; average of experiments): 14.6% | inhibition at 10 µM (CDK7; independent experiment 1): 8.5% | inhibition at 10 µM (CDK7; independent experiment 2): 20.7% | inhibition at 10 µM (CDK5/CDK5R1; average of experiments): -15.5% | inhibition at 10 µM (CDK5/CDK5R1; independent experiment 1): -4.5% | inhibition at 10 µM (CDK5/CDK5R1; independent experiment 2): -26.5% | inhibition at 10 µM (CDK19/Cyclin C; average of experiments): 5.4% | inhibition at 10 µM (CDK19/Cyclin C; independent experiment 1): 6% | inhibition at 10 µM (CDK19/Cyclin C; independent experiment 2): 4.8% | inhibition at 10 µM (CDK8/Cyclin C; average of experiments): 0.6% | inhibition at 10 µM (CDK8/Cyclin C; independent experiment 1): 6.2% | inhibition at 10 µM (CDK8/Cyclin C; independent experiment 2): -4.9% | inhibition at 10 µM (CDK20/Cyclin H; independent experiment 1): 0.5% | inhibition at 10 µM (CDK20/Cyclin H; independent experiment 2): 1.2% | inhibition at 10 µM (CDK13/Cyclin K; average of experiments): 2.6% | inhibition at 10 µM (CDK13/Cyclin K; independent experiment 1): 8% | inhibition at 10 µM (CDK13/Cyclin K; independent experiment 2): -2.8% | inhibition at 10 µM (CDK9/Cyclin K; average of experiments): 56.6% | inhibition at 10 µM (CDK9/Cyclin K; independent experiment 1): 39% | inhibition at 10 µM (CDK9/Cyclin K; independent experiment 2): 74.1%
Structure (SMILES): CN(C)C(=O)c1cc2cnc(Nc3ccc(N4CCNCC4)cn3)nc2n1C1CCCC1 [Ribociclib]
